Laboratory results: BindingDB's records for doi:10.1016/j.bmcl.2004.05.049 (Procyon Biopharma, 2004)

Molecular target: T1, Dimer of Gag-Pol polyprotein [501-599] (Human immunodeficiency virus 1, UniProt P03367)
T1 construct: 501-599
Assay: Protease Inhibition Assay
Details: pH 4.7; 30 °C
Description: HIV-1 protease activity was measured by a continuous fluorometric assay using the internally quenched fluorogenic substrate DABCYL-Ser-Gln-Asn-Tyr-Pro-Ile-Val-Gln-EDANS. The proteolytic activity can be monitored by the increase in fluorescence intensity, and the protease products were analyzed by HPLC.

SMILES	Ki
Cc1ccc(S(=O)(=O)N(CC(C)C)[C@@H](CCCCNC(=O)NCc2ccccn2)C(=O)O)cc1 [(2S)-2-[(4-methylbenzene)(2-methylpropyl)sulfonamido]-6-{[(pyridin-2-ylmethyl)carbamoyl]amino}hexanoic acid]	> 300 nM
Cc1ccc(S(=O)(=O)N(CC(C)C)[C@@H](CCCCNC(=O)N(CCc2ccccc2)Cc2ccccc2)C(=O)O)cc1 [(2S)-6-{[benzyl(2-phenylethyl)carbamoyl]amino}-2-[(4-methylbenzene)(2-methylpropyl)sulfonamido]hexanoic acid]	> 300 nM
